# Experimental data reported in patent US11253557B2, “Therapeutic bacteriophage compositions” (priority 2015, dated 2022).
# Several values for one entry are separate records, joined by “and”; a condition that tells them apart may be missing. Equal values may be shown once.
# Test system: S. aureus strain UNT144-3
# Experiment: S. aureus neutropenic lung model (murine pneumonia model)
# Type: in vivo, Staphylococcus aureus
# Settings: neutropenic mice, 100 mg/kg SC at 2 and 6 hrs post-infection, CFU assessed 24 hr
# Experimental: In a non-limiting example, the sensitivity of two S. aureus clinical isolates, UNT109-3 (NRS234, native valve endocarditis) and UNT144-3, that have been previously utilized in animal models of infection, was evaluated vs. the individual phage and the 4-phage cocktail. […] The virulence of the two strains was then evaluated in the murine lung infection model. Female Hsd:ICR(CD-1) mice (Harlan Laboratories, Houston, Tex.) were administered 150 and 100 mg/kg cyclophosphamide on day −4 and day −1 prior to infection to render them neutropenic. Groups of 5 mice were then anaesthetized by intraperitoneal (IP) injection of 0.15 mL of a mixture of ketamine HCl (100 mg/kg body weight) plus xylazine (10 mg/kg body weight). Once anaesthetized, mice were infected intranasally by placing drops on the external nares and allowing inhalation of the 50 μl inoculum. Twenty-four hours after infection, mice were euthanized by CO2 inhalation and lungs processed for bacterial titers. Bacterial counts were enumerated on Brain Heart Infusion agar (Difco™ Laboratories)+0.5% activated charcoal (Sigma-Aldrich) plates for ease of recovering and detecting S. aureus (Barr, J. G., et al., J Clin. Pathol. (1987) 40:372-376). […]
# Three phage cocktail treatment groups were evaluated for efficacy: 2×10^10 PFU/mL per phage, 2×10^9 PFU/mL per phage, and 2×10^8 PFU/mL per phage. […]
smiles,measurement,value
CN[C@H](CC(C)C)C(=O)N[C@H]1C(=O)N[C@@H](CC(N)=O)C(=O)N[C@H]2C(=O)N[C@H]3C(=O)N[C@H](C(=O)N[C@H](C(=O)O)c4cc(O)cc(O)c4-c4cc3ccc4O)[C@H](O)c3ccc(c(Cl)c3)Oc3cc2cc(c3O[C@@H]2O[C@H](CO)[C@@H](O)[C@H](O)[C@H]2O[C@H]2C[C@](C)(N)[C@H](O)[C@H](C)O2)Oc2ccc(cc2Cl)[C@H]1O [Vancomycin],Mean ± SD logo CFU/Lung Pair,5.55 log10 CFU/lung pair and 5.55 ± 1.1 log10 CFU/lung pair
